Values quoted from earlier work in patent US8986736B2, “Method for delivering particulate drugs to tissues” (Baxter International Inc., priority 2003, dated 2015).

System: HIV-infected macrophages

## CC(C)(C)NC(=O)[C@@H]1C[C@@H]2CCCC[C@@H]2CN1C[C@@H](O)[C@H](Cc1ccccc1)NC(=O)[C@H](CC(N)=O)NC(=O)c1ccc2ccccc2n1 [saquinavir]
100 nM, in solution
  activity in chronically HIV-infected macrophages: completely inactive
Aqueous solution, HIV-infected macrophages
  antiviral activity: little antiviral activity
